Test results taken from BindingDB's records for PubMed 32853683 (Peking Union Medical College, 2020).

Key:
[1] = Inhibition of trypsin-like activity of human 20S proteasome beta 2
[2] = Inhibition of caspase-like activity of human 20S proteasome beta 1

Row | SMILES | IC50 [1] [µM] | IC50 [2] [µM]
1 | CCCc1ccc(OCC(=O)N(Cc2nc(-c3cccnc3)no2)C(C)C)cc1 | > 50 | > 50
2 | CCCc1ccc(OCC(=O)N(Cc2nc(-c3ccco3)no2)C(C)C)cc1 | > 50 | > 50
3 | CCCc1ccc(OCC(=O)N(Cc2nc(-c3cccs3)no2)C(C)C)cc1 | > 50 | > 50
4 | CCCc1ccc(OCC(=O)N(Cc2cccc(-c3cccnc3)c2)C(C)C)cc1 | > 50 | > 50
